Test results reported in ChEMBL document CHEMBL3045387, “Synthesis and Fungicidal Activity of New 1, 3, 2-Oxazaphospholidine 2-Sulfides” (1994).

Legend:
Assay type in all cases: functional
Conditions in all cases: 96 h, read-out: GI
Corticium [1] = assay: Antimicrobial activity against Corticium sp. assessed as inhibition of mycelial growth on potato dextrose agar at 100 ppm at 27 degC measured after 4 days
Pythium [2] = assay: Antimicrobial activity against Pythium sp. assessed as inhibition of mycelial growth on potato dextrose agar at 100 ppm at 27 degC measured after 4 days
Corticium [3] = assay: Antimicrobial activity against Corticium sp. assessed as inhibition of mycelial growth on potato dextrose agar at 1000 ppm at 27 degC measured after 4 days
Pythium [4] = assay: Antimicrobial activity against Pythium sp. assessed as inhibition of mycelial growth on potato dextrose agar at 1000 ppm at 27 degC measured after 4 days

Compound | inhibition of growth at 100 ppm (Corticium [1]) | inhibition of growth at 100 ppm (Pythium [2]) | inhibition of growth at 1000 ppm (Corticium [3]) | inhibition of growth at 1000 ppm (Pythium [4])
C=CCc1ccc(OP2(=S)N[C@@H](CC(C)C)CO2)c(OC)c1 (stereo partly specified) | 0.8% | 9.9% | – | –
CC[C@H](C)[C@H]1COP(=S)(Oc2cc(C)ccc2C(C)C)N1 (stereo partly specified) | 0% | 3.7% | – | –
Cc1ccc(OP2(=S)N[C@@H](C(C)C)CO2)c(C(C)C)c1 (stereo partly specified) | 0% | 24.3% | – | –
CC[C@H](C)[C@H]1COP(=S)(OCCC(C)CCC=C(C)C)N1 (stereo partly specified) | 0% | 0% | – | –
CC12CCC(CC1)C(C)(C)O2 [EUCALYPTOL] | 8.3% | 0% | 0% | 0.4%
Cc1ccc(O)c(C(C)C)c1 [ISOTHYMOL] | 72.4% | 94.3% | 100% | 100%
CC(C)=CCC/C(C)=C/COP1(=S)N[C@@H](C(C)C)CO1 (stereo partly specified) | 68.6% | 68.2% | – | –
CC1(C)C2CCC1(C)C(O)C2 (stereo unspecified) [BORNEOL] | 27.7% | 21.1% | 100% | 100%
CC(C)=CCCC(C)CCOP1(=S)N[C@@H](C)CO1 (stereo partly specified) | 0% | 0% | – | –
CC(C)=CCC/C(C)=C/COP1(=S)N[C@@H](CC(C)C)CO1 (stereo partly specified) | 26.7% | 35.4% | 97.9% | 100%
CC1=CC[C@@H](C(C)(C)O)CC1 [ALPHA-TERPINEOL] | 71.8% | 11.2% | 100% | 100%
C=CCc1ccc(O)c(OC)c1 [EUGENOL] | 67.6% | 92.7% | 100% | 100%
CC(C)=CCC/C(C)=C/COP1(=S)N[C@@H](C)CO1 (stereo partly specified) | 22.7% | 20.2% | – | –
CC12CCC(CC1=O)C2(C)C (stereo unspecified) [CAMPHOR] | 0.4% | 0% | 22.1% | 9.3%
C=CCc1ccc(OP2(=S)N[C@@H](C(C)C)CO2)c(OC)c1 (stereo partly specified) | 37.5% | 53.9% | – | –
CC(C)=CCCC(C)CCOP1(=S)N[C@@H](CC(C)C)CO1 (stereo partly specified) | 26.7% | 24.7% | 82.9% | 53.9%
CC(C)=CCC/C(C)=C/CO [GERANIOL] | 71.8% | 63.3% | 100% | 100%
CC(C)c1ccc(C=O)cc1 [CUMINALDEHYDE] | 22% | 14% | 100% | 100%
CC1=CCC2CC1C2(C)C (stereo not drawn) [ALPHA-PINENE] | 0.8% | 4% | 46.3% | 0%
COC(=O)/C=C/c1ccccc1 [E-METHYL CINNAMATE] | 54% | 66% | 100% | 100%
CC[C@H](C)[C@H]1COP(=S)(Oc2ccc(C)cc2C(C)C)N1 (stereo partly specified) | 0% | 12.5% | – | –
